“Also recorded” adds a separate entry of the source.
Key:
[1] = tested on: HaloTag® protein; test: Binding efficiency/kinetics to HaloTag protein in cell lysate (chase with fluorescent HaloTag ligand, SDS-PAGE); settings: 1 μM; for binding efficiency / labeling kinetics to HaloTag protein in lysate: methotrexate-chloroalkane conjugates, 0-60 min (O4 = PBI-4849, O6 = PBI-4850)
Method: (§1) a) Binding efficiency to HaloTag® protein in lysate was measured by adding the methotrexate-chloroalkane conjugates to lysate from cells expressing a HaloTag® protein to a final concentration of 1 μM. Following 0-60 mins of binding, the reactions were chased with 1 μM fluorescent HaloTag® ligand. Unbound HaloTag® protein was detected through binding to the fluorescent HaloTag® ligand followed by analysis on SDS-PAGE gel and detection on a fluorescent gel scanner.
as §1, with “adding the dexamethasone-chloroalkane conjugates to” for “adding the methotrexate-chloroalkane conjugates to”, “the fluorescent HaloTag ligand followed” for “the fluorescent HaloTag® ligand followed”
a) Binding kinetics to HaloTag® protein in cell lysate was measured by adding the modified BIRB796-chloroalkane conjugates to lysate from cells expressing a HaloTag® protein at a final concentration of 1 μM. After 0-60 min of binding, the reactions were chased with 1 μM fluorescent HaloTag® ligand (Promega Corporation). Unbound HaloTag® protein was detected through binding to the fluorescent HaloTag® ligand followed by analysis on SDS-PAGE and detection on a fluorescent gel scanner.
Following 0-60 min of binding, the reactions were chased with 1 μM fluorescent HaloTag® ligand. Unbound HaloTag® protein was detected through binding to the fluorescent HaloTag® ligand followed by analysis on SDS-PAGE and detection on a fluorescent gel scanner.
a) Binding kinetics to HaloTag® protein in cell lysate was measured by adding the dasatinib-chloroalkane conjugates to lysate (final concentration of 1 μM) from cells expressing a HaloTag® protein. Following 0-60 min of binding, the reactions were chased with 1 μM fluorescent HaloTag® ligand. Unbound HaloTag® protein was detected through binding to the fluorescent HaloTag® ligand followed by analysis on SDS-PAGE and detection on a fluorescent gel scanner.

[2] = tested on: HaloTag® protein; test: Binding efficiency/kinetics to HaloTag protein in cells (cell permeability; chase with fluorescent HaloTag ligand, SDS-PAGE); type: cell-based; settings: 10 μM
Method: b) Binding efficiency to HaloTag® protein in cells was measured by adding the methotrexate-chloroalkane conjugates to cells expressing a HaloTag® protein to a final concentration of 10 μM. Following 0-120 mins of binding, the reactions were chased with 5 μM fluorescent HaloTag® ligand. Unbound HaloTag® protein was detected through binding to the fluorescent HaloTag® ligand followed by cell lysis, analysis on a SDS-PAGE gel and detection on a fluorescent gel scanner.
b) Binding efficiency to HaloTag® protein in cells was measured by adding the dexamethasone-chloroalkane conjugates to cells expressing a HaloTag® protein to a final concentration of 10 μM. Following 0-60 mins of binding, the reaction was chased with 5 μM fluorescent HaloTag ligand. Unbound HaloTag® protein was detected through binding to the fluorescent HaloTag® ligand followed by cell lysis, analysis on SDS-PAGE gel and detection on a fluorescent gel scanner.
b) Binding kinetics to HaloTag® protein in cells was measured by adding the modified BIRB796-chloroalkane conjugates to cells expressing a HaloTag® protein at a final concentration of 10 μM. Following 0-60 min of binding, the reactions were chased with 5 μM fluorescent HaloTag® ligand. Unbound HaloTag® protein was detected through binding to the fluorescent HaloTag® ligand followed by cell lysis, analysis on SDS-PAGE and detection on a fluorescent gel scanner.
Following 0-180 min of binding, the reactions were chased with 5 μM fluorescent HaloTag® ligand. Unbound HaloTag® protein was detected through binding to the fluorescent HaloTag® ligand followed by cell lysis, analysis on SDS-PAGE and detection on a fluorescent gel scanner.
b) Binding kinetics to HaloTag® protein in cells was measured by adding the dasatinib-chloroalkane conjugates (final concentration of 10 μM) to cells expressing a HaloTag protein which localized to the cytoplasm or the nucleus. Following 0-90 min of binding, the reactions were chased with 5 μM fluorescent HaloTag® ligand. Unbound HaloTag® protein was detected through binding to the fluorescent HaloTag® ligand followed by cell lysis, analysis on SDS-PAGE and detection on a fluorescent gel scanner.

[3] = molecular target: T1, NanoLuc-DHFR fusion protein (Homo sapiens, UniProt P00374); test: Pull-down of NanoLuc-DHFR fusion from living HEK293 cells onto HaloTag protein beads; type: cell-based; settings: HEK293, 10 uM conjugate, 2 h; beads 45 min; release with 150 μM methotrexate
T1 construct: expressed in transfected cells; host or cells: HEK293
T1 sequence (P00374 1-187): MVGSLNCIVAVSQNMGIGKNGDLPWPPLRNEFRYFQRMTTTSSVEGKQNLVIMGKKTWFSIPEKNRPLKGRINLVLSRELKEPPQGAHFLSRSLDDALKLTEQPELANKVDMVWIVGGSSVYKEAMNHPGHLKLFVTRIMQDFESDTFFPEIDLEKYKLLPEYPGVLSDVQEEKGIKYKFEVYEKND
Method: HEK293 cells were plated and transfected using PEI with plasmid DNA encoding a NANOLUC-DHFR fusion in wells of a 96-well plate. The DNA was diluted 1:50 with a promoterless carrier DNA plasmid (pCI) to a final concentration of 80 ng total DNA per well. Twenty-four hours post-transfection, cells were serum starved for additional 24 hours and then treated with […] 10 uM PBI-4848 or PBI-5015 while control cells were not treated with the conjugated drug. Following equilibration binding of 2 h, the media was removed, and the cells quickly washed with PBS and lysed in detergent-based lysis buffer for 10 min. Cell lysates were then transferred to wells of a 96-well plate containing 0.5 μl settled paramagnetic HALOTAG protein beads and incubated with shaking for 45 min. Following binding, the unbound fraction was removed, the HALOTAG protein paramagnetic beads washed, 150 μM unconjugated methotrexate added, and the captured NANOLUC:DHFR specifically released from the beads by competition with the unconjugated methotrexate for 60 min. The released NANOLUC:DHFR (+PBI-5015 or +PBI-4848) and control samples were detected by NANOGLO luciferase detection reagent.

[4] = molecular target: T2, ABL-NanoLuc® fusion protein (Homo sapiens, UniProt P00519); test: Pull-down of ABL-NanoLuc fusion from live HEK293 cells onto HaloTag protein beads; type: cell-based; settings: HEK293, 20 μM conjugate, 2 h; beads 15 min; release with 400 μM dasatinib
T2 construct: expressed in transfected cells; host or cells: HEK293
Method: c) The 2 carbamate linkers were also compared for their ability to specifically pull down a ABL-NanoLuc® fusion protein from live cells. HEK293 cells were transfected using PEI with plasmid DNA encoding ABL-NanoLuc® fusion (transfection was done in a 96-well format). The DNA was diluted 1:100 with a promoterless carrier DNA plasmid (pCI-neo; Promega Corporation) to a final concentration of 80 ng total DNA per well. Twenty-four hours post-transfection, cells were incubated with a final concentration of 20 μM PBI-5270 or PBI-5590 while control cells were not treated with the conjugated drug. Following equilibration binding of 2 h, the media was removed; cells were quickly washed with PBS; and cells lysed in detergent-based lysis buffer for 10 min. Cell lysates were then transferred to a 96-well plate containing 0.5 μl settled paramagnetic HaloTag® protein beads and incubated with shaking for 15 min. Following binding, the unbound fraction was removed, the HaloTag® protein paramagnetic beads were washed 3×, and the captured ABL-NanoLuc® fusion was specifically released from the beads by competition with 400 μM unconjugated dasatinib for 15 min. The released ABL-NanoLuc® fusion in the experiment (+PBI-5270 or +PBI-5590) and control samples was detected by NanoGlo® reagent.

[5] = molecular target: T3, glucocorticoid receptor (GR) (Homo sapiens, UniProt P04150); test: Glucocorticoid receptor competitor assay (fluorescence polarization, Life Technology); type: binding; settings: dexamethasone-chloroalkane conjugates (carbamate linker = PBI-4980)
T3 construct: purchased Life Technology
T3 sequence (P04150 1-777): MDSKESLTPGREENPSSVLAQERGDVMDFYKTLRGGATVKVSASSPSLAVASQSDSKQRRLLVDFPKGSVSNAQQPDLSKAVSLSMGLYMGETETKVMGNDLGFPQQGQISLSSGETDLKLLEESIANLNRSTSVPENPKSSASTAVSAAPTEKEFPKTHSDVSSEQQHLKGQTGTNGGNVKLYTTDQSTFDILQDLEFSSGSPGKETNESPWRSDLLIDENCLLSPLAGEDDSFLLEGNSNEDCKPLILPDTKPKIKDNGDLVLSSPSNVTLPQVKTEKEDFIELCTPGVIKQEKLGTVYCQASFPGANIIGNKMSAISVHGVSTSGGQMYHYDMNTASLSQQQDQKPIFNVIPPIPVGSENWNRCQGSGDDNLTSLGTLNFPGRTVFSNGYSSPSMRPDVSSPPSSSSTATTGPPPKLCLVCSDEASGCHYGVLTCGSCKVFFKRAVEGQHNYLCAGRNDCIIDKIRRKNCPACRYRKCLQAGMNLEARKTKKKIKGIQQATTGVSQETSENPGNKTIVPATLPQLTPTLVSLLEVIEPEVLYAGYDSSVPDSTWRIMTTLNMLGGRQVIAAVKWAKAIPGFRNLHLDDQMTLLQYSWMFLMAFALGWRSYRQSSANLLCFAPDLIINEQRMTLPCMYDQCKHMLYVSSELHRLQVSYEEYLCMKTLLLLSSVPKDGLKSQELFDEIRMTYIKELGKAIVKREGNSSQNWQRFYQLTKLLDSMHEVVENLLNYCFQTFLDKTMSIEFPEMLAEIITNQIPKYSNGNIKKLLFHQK
From the text: c) Binding efficiency to the target glucocorticoid receptor (GR) was done using the glucocorticoid receptor competitor assay (Life Technology) as recommended by the manufacturer.

[6] = molecular target: T4, NanoLuc:GR fusion (Homo sapiens, UniProt P04150); test: Pull-down of NanoLuc:GR fusion from live HEK293 cells onto HaloTag protein beads; type: cell-based; settings: HEK293, 10 μM conjugate, 2 h; beads 45 min; release with 150 μM dexamethasone; PBI-4980 compared with PBI-4025
T4 construct: expressed in transfected cells; host or cells: HEK293
T4 sequence (P04150 1-777): T3 sequence (P04150 1-777)
Method: HEK293 cells were plated and transfected using PEI with plasmid DNA encoding NanoLuc:GR fusion in wells of a 96-well plate. The DNA was diluted 1:50 with a promoterless carrier DNA plasmid (pCI neo) to a final concentration of 80 ng total DNA per well. Twenty-four hours post-transfection, cells were serum starved for additional 24 hours then incubated with a final concentration of 10 μM PBI-4980 or PBI-4025 while control cells were not treated with the conjugated drug. Following equilibration binding of 2 h, the media was removed, cells quickly washed with PBS and lysed in detergent-based lysis buffer for 10 min. Cell lysates were than transferred to wells of a 96-well plate containing 0.5 μl settled paramagnetic HaloTag® protein beads and incubated with shaking for 45 min. Following binding the unbound fraction was removed, the HaloTag® protein paramagnetic beads were washed 3×, and the captured NanoLuc fusion was specifically released from the beads by competition with 150 μM unconjugated Dexamethasone for 60 min. The released NanoLuc:GR (+PBI-4980 or +PBI-4025) and control samples were detected by using the NanoGlo® assay reagent (Promega Corp).

[7] = methotrexate-chloroalkane conjugates, 0-120 min (O4 = PBI-4849, O6 = PBI-4850)

T2 sequence (P00519 whole entry, the tested form may be a part): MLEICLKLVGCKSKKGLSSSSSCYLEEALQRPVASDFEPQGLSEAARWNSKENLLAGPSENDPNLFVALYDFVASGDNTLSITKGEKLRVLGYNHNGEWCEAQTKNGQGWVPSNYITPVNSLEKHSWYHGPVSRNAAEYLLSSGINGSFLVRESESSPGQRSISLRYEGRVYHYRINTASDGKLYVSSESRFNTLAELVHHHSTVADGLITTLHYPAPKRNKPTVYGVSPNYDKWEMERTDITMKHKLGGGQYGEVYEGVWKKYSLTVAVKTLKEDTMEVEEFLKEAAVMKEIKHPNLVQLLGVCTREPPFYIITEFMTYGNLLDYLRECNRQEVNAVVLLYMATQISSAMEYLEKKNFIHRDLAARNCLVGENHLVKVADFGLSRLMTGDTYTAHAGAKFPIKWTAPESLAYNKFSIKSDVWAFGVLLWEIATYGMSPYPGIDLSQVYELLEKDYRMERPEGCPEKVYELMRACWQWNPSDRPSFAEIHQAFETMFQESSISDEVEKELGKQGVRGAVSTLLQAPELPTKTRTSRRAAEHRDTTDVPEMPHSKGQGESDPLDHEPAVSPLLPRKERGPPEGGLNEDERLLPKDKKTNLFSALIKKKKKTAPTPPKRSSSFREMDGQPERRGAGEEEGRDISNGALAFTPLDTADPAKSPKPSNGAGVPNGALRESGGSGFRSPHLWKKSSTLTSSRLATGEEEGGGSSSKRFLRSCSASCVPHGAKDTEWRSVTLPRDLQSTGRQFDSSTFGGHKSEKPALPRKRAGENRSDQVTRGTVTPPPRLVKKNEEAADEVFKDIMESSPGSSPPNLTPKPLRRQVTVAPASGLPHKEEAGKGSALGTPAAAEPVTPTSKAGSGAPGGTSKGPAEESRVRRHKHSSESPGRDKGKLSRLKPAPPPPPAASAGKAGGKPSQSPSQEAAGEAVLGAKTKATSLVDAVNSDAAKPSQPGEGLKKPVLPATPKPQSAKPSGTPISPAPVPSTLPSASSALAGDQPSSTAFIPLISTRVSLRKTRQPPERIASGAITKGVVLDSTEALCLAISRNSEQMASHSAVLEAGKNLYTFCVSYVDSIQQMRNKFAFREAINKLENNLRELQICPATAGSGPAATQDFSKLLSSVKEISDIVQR

Q: How did the “binding efficiency / labeling kinetics to HaloTag protein in lysate” value [1] turn out when `CN(Cc1cnc2nc(N)nc(N)c2n1)c1ccc(C(=O)NC(CCC(=O)NCCOCCOCCCCCCCl)C(=O)O)cc1` (centres unmarked) [PBI-4848, Methotrexate-O2 Chloroalkane] was run?
A: The value was “fast labeling kinetics”.

Q: And the “cell permeability/binding efficiency to HaloTag protein in cells” value (shortened to “cell permeability/binding efficiency”) [2, 7]?
A: The value was “best cell permeability and binding efficiency; also recorded: higher cell permeability”.

Q: `CN(Cc1cnc2nc(N)nc(N)c2n1)c1ccc(C(=O)NC(CCC(=O)NCCCCCNC(=O)OCCOCCOCCOC(=O)NCCOCCOCCCCCCCl)C(=O)O)cc1` (centres unmarked) [PBI-5015, Methotrexate Carbamate Chloroalkane] was tested. Which “binding efficiency / labeling kinetics to HaloTag protein in lysate” value [1] did it give?
A: Its value is “fast labeling kinetics”.

Q: And the “pull-down of Nluc:DHFR fusion from living cells” value [3]?
A: The value was “efficiently pulled down”.

Q: What about the “cell permeability/binding efficiency” value [2, 7] of the same compound?
A: The value was “good cell permeability and binding efficiency; also recorded: best cell permeability and binding efficiency”.

Q: For `Cc1nc(Nc2ncc(C(=O)Nc3c(C)cccc3Cl)s2)cc(N2CCN(CCOC(=O)NCCCCCNC(=O)OCCOCCOCCOC(=O)NCCOCCOCCCCCCCl)CC2)n1` [PBI-5270, Dasatinib Bis-Carbamate], which “pull-down of ABL:NanoLuc fusion from live cells” value [4] is on record?
A: The value was “pulled down efficiently”.

Q: How did the “affinity / binding efficiency to glucocorticoid receptor” value (from here on “affinity / binding efficiency”) [5] turn out when `C[C@@H]1CC2[C@@H]3CCC4=CC(=O)C=C[C@]4(C)[C@@]3(F)[C@@H](O)C[C@]2(C)[C@@]1(O)C(=O)NCCOCCOCCOCCOCCC(=O)NCCOCCOCCCCCCCl` (some centres unmarked) [PBI-4025] was run?
A: Its value is “highest affinity; also recorded: best binding efficiency; also recorded: higher affinity”.

Q: With `CC(C)(C)c1cc(NC(=O)Nc2ccccc2)n(-c2cccc(CNC(=O)CNC(=O)CCC(=O)NCCOCCOCCCCCCCl)c2)n1` [PBI-4832, BIRB* O2 Chloroalkane] as the compound, how does the “binding kinetics to HaloTag protein in cell lysate” value ([1]; modified BIRB796-chloroalkane conjugates, 0-60 min) read?
A: The value was “fast binding kinetics”.

Q: How did the “binding kinetics to HaloTag protein in lysate” value ([1]; dexamethasone-chloroalkane conjugates, 0-60 min) turn out when `C[C@@H]1CC2[C@@H]3CCC4=CC(=O)C=C[C@]4(C)[C@@]3(F)[C@@H](O)C[C@]2(C)[C@@]1(O)C(=O)NCCCCCNC(=O)OCCOCCOCCOC(=O)NCCOCCOCCCCCCCl` (some centres unmarked) [PBI-4980, Dexamethasone Carbamate Chloroalkane] was run?
A: Its value is “faster binding kinetics”.

Q: What about the “affinity / binding efficiency” value [5] of the same compound?
A: The value was “best binding efficiency”.

Q: What about the “affinity / binding efficiency” value ([5]; listed as carbamate linker) of the same compound?
A: The value was “highest affinity”.

Q: And the “cell permeability/binding efficiency” value ([2]; dexamethasone-chloroalkane conjugates, 0-60 min (O4 = PBI-4026, O6 = PBI-4025))?
A: The value was “best cell permeability/binding efficiency”.

Q: And the “efficiency of Nluc:GR fusion pull down” value [6]?
A: The value was “significantly higher”.

Q: With `Cc1nc(Nc2ncc(C(=O)Nc3c(C)cccc3Cl)s2)cc(N2CCN(CCOC(=O)NCCOCCOCCCCCCCl)CC2)n1` [PBI-5590, Dasatinib Monocarbamate] as the compound, how does the “binding kinetics to HaloTag protein in cell lysate” value ([1]; dasatinib-chloroalkane conjugates, 0-60 min, compared with PBI-5270) read?
A: Its value is “faster binding kinetics”.

From patent publication US11072812B2, “Substrates for covalent tethering of proteins to functional groups or solid surfaces” (PROMEGA CORPORATION, priority 2013, dated 2021)
